This is an account of results in BindingDB's records for doi:10.1016/j.bmcl.2011.11.036 (Pfizer, 2011).

This test in a line: Inhibition of mouse Sky kinase assessed as inhibition of src substrate phosphorylation by ELISA.

As for `O=C(c1cc2cc(Cl)ccc2[nH]1)N1C[C@]2(CCN(C3CCCNC3)C2)c2ccccc21` (stereo partly drawn), the half-maximal inhibitory concentration (IC50) was 1.04 µM. Consider `O=C(c1cc2cc(Cl)ccc2[nH]1)N1C[C@]2(CCN(C3CCNC3)C2)c2ccccc21` (stereo partly drawn), for which the IC50 was 0.495 µM.

For the compound `O=C(c1cc2cc(Cl)ccc2[nH]1)N1C[C@]2(CCN(C3CCNCC3)C2)c2ccccc21`, the half-maximal inhibitory concentration (IC50) stood at 8.66 µM.

`O=C(c1cc2cc(F)ccc2[nH]1)N1C[C@]2(CCN(C3CNC3)C2)c2ccccc21`: the half-maximal inhibitory concentration (IC50) was 1.81 µM.

For `CN1CCC(N2CC[C@]3(CN(C(=O)c4cc5cc(F)ccc5[nH]4)c4ccccc43)C2)CC1`, the IC50 was 2.88 µM.

On to `O=C(c1cc2cc(F)ccc2[nH]1)N1C[C@]2(CCN(CC3CCCNC3)C2)c2ccccc21` (stereo partly drawn), for which the IC50 is 4.41 µM. As for `C[C@@H]1CCC(N2CC[C@]3(CN(C(=O)c4cc5ccccc5[nH]4)c4ccccc43)C2)CN1` (stereo partly drawn), the 50% inhibitory concentration (IC50) was determined as 0.246 µM. Regarding `C[C@@H]1CCC(N2CC[C@]3(CN(C(=O)c4cc5ccc(F)cc5[nH]4)c4ccccc43)C2)CN1` (stereo partly drawn), the half-inhibitory concentration (IC50) turned out to be 0.189 µM. As to `O=C(c1cc2ccc(F)cc2[nH]1)N1C[C@]2(CCN(C3CCNC3)C2)c2ccccc21` (stereo partly drawn), the IC50 came to 0.598 µM. For `CCN1CCCC(N2CC[C@]3(CN(C(=O)c4cc5cc(F)ccc5[nH]4)c4ccccc43)C2)C1` (stereo partly drawn), the half-inhibitory concentration (IC50) is 4.93 µM. In the case of `O=C(c1cc2cc(F)ccc2[nH]1)N1C[C@]2(CCN(C3CCCCC3)C2)c2ccccc21`, the concentration for half-maximal inhibition (IC50) stood at 27.9 µM.

For `Cc1ccc(N2CC[C@@]3(C2)CN(C(=O)c2cc4cc(F)ccc4[nH]2)c2ccccc23)cn1`, the 50% inhibitory concentration (IC50) stood at 37.8 µM. The same measure for `Cc1ccc2[nH]c(C(=O)N3C[C@]4(CCN(C5CCNC5)C4)c4ccccc43)cc2c1` (stereo partly drawn): 0.811 µM; for `COc1ccc2[nH]c(C(=O)N3C[C@]4(CCN(C5CCNC5)C4)c4ccccc43)cc2c1` (stereo partly drawn): 0.501 µM; for `COc1ccc2cc(C(=O)N3C[C@]4(CCN(C5CCNC5)C4)c4ccccc43)[nH]c2c1` (stereo partly drawn): 0.843 µM. With `NC(=O)c1ccc2cc(C(=O)N3C[C@]4(CCN(C5CCNC5)C4)c4ccccc43)[nH]c2c1` (stereo partly drawn), the IC50 came to 2.2 µM. As to `N#Cc1ccc2cc(C(=O)N3C[C@]4(CCN(C5CCNC5)C4)c4ccccc43)[nH]c2c1` (stereo partly drawn), the IC50 was found to be 1.13 µM.

On to `O=C(c1cc2c(Cl)cccc2[nH]1)N1C[C@]2(CCN(C3CCNC3)C2)c2ccccc21` (stereo partly drawn), for which the half-inhibitory concentration (IC50) is 0.56 µM.
